Among the data in patent US9469615B2, “Quinoxalines and AZA-quinoxalines as CRTH2 receptor modulators” (Merck Sharp & Dohme Corp., priority 2010, dated 2016) are Ki values, retold here.

This test concerns the target T1, hCRTH2 (Homo sapiens, UniProt Q9Y5Y4).
T1 construct: expressed in transfected cells; host or cells: HEK (human embryonic kidney) cells expressing hCRTH2; membrane preparation
T1 sequence (Q9Y5Y4 1-395): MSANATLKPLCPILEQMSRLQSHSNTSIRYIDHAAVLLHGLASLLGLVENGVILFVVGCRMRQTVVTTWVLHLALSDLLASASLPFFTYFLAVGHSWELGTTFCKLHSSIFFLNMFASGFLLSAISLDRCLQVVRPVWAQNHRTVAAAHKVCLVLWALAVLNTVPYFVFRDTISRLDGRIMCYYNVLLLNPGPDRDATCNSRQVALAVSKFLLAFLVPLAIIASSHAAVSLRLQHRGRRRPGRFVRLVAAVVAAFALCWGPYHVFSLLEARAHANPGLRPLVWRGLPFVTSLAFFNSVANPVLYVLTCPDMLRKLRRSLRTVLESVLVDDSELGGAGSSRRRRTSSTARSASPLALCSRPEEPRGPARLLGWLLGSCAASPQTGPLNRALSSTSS
Kind of test: Radioligand binding assay ([3H]PGD2 competition, HEK-hCRTH2 membranes). Particulars: [3H]PGD2 competition, Table B. The gist of the method: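 Competition binding with 3.0 nM [3H]PGD2 and 8-20 μg HEK-hCRTH2 membrane protein in 50 mM Tris-HCl pH 7.4, 1 mM EDTA, 2 mM MnCl2, 1% Me2SO, 60 min at room temperature. Nonspecific binding defined with 10 μM PGD2; bound radioactivity counted after filtration.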
`COc1ccc(C2CN(C(=O)c3ccc4nc(-c5ccccc5)c(CCCCC(=O)O)nc4c3)C2)cc1` [compound 389, 5-(7-(3-(4-methoxyphenyl)azetidine-1-carbonyl)-3-phenylquinoxalin-2-yl)pentanoic acid] gave an inhibition constant Ki of 0.1 to 2 nM.

`COc1cccc(C2CN(C(=O)c3ccc4nc(-c5ccccc5)c(CCCCC(=O)O)nc4c3)C2)c1` [compound 390, 5-(7-(3-(3-methoxyphenyl)azetidine-1-carbonyl)-3-phenylquinoxalin-2-yl)pentanoic acid] yielded a Ki of 0.1 to 2 nM.

For `CC(CCCc1nc2cc(C(=O)N[C@H](C)c3ccc(Cl)cc3)ccc2nc1-c1ccc(Cl)cc1)C(=O)O` (stereo partly drawn) [compound 391, 5-(3-(4-chlorophenyl)-7-(((R)-1-(4-chlorophenyl)ethyl)carbamoyl)quinoxalin-2-yl)-2-methylpentanoic acid], the Ki was 2.1 to 20 nM.

With `CC(CCCc1nc2cc(C(=O)N[C@@H](C)c3ccc(Cl)cc3)ccc2nc1-c1ccc(Cl)cc1)C(=O)O` (stereo partly drawn) [compound 392, 5-(3-(4-chlorophenyl)-7-(((S)-1-(4-chlorophenyl)ethyl)carbamoyl)quinoxalin-2-yl)-2-methylpentanoic acid], the Ki fell in the range of 2.1 to 20 nM.

For `Cc1ccc(CNC(=O)c2ccc3nc(-c4ccc(Cl)cc4)c(CC4CCC(C(=O)O)C4)nc3c2)cc1` (centres unmarked) [compound 393, 3-((3-(4-chlorophenyl)-7-((4-methylbenzyl)carbamoyl)quinoxalin-2-yl)methyl)cyclopentane-carboxylic acid], the Ki lay within 2.1 to 20 nM.

For `C[C@@H](NC(=O)c1ccc2nc(-c3ccc(Cl)cc3)c(CC3CCC(C(=O)O)C3)nc2c1)c1ccccc1` (stereo partly drawn) [compound 394, 3-((3-(4-chlorophenyl)-7-(((R)-1-phenylethyl)carbamoyl)quinoxalin-2-yl)methyl)cyclopentane-carboxylic acid], the Ki was in the range of 2.1 to 20 nM.

For the compound `O=C(N[C@H](c1ccccc1)C(F)(F)F)c1ccc2nc(-c3ccc(Cl)cc3)c(CC3CCC(C(=O)O)C3)nc2c1` (stereo partly drawn) [compound 395, 3-((3-(4-chlorophenyl)-7-(((R)-2,2,2-trifluoro-1-phenylethyl)carbamoyl)quinoxalin-2-yl)methyl)cyclopentane-carboxylic acid], the Ki was 2.1 to 20 nM.

`O=C(O)C1CCC(Cc2nc3cc(C(=O)N4CC(c5ccc(F)cc5)C4)ccc3nc2-c2ccc(Cl)cc2)C1` (centres unmarked) [compound 396, 3-((3-(4-chlorophenyl)-7-(3-(4-fluorophenyl)azetidine-1-carbonyl)quinoxalin-2-yl)methyl)cyclopentanecarboxylic acid] yielded a Ki of 2.1 to 20 nM.

The compound `O=C(O)C1CCC(Cc2nc3cc(C(=O)N4CC(c5cccc(F)c5)C4)ccc3nc2-c2ccc(Cl)cc2)C1` (centres unmarked) [compound 397, 3-((3-(4-chlorophenyl)-7-(3-(3-fluorophenyl)azetidine-1-carbonyl)quinoxalin-2-yl)methyl)cyclopentane-carboxylic acid] displayed a Ki of 2.1 to 20 nM.

`O=C(O)C1CCC(Cc2nc3cc(C(=O)N4CC(c5ccc(F)c(F)c5)C4)ccc3nc2-c2ccc(Cl)cc2)C1` (centres unmarked) [compound 398, 3-((3-(4-chlorophenyl)-7-(3-(3,4-difluorophenyl)azetidine-1-carbonyl)quinoxalin-2-yl)methyl)cyclopentane-carboxylic acid] had a Ki of 2.1 to 20 nM.

The compound `CC(C)[C@@H](NC(=O)c1ccc2nc(-c3ccc(Cl)cc3)c(CCCCC(=O)O)nc2c1)c1ccc(F)cc1` [compound 399, (R)-5-(3-(4-chlorophenyl)-7-((1-(4-fluorophenyl)-2-methylpropyl)carbamoyl)quinoxalin-2-yl) pentanoic acid] displayed a Ki of 2.1 to 20 nM.

`N#Cc1ccc(C2CN(C(=O)c3ccc4nc(-c5ccc(Cl)cc5)c(CC5CCC(C(=O)O)C5)nc4c3)C2)cc1` (centres unmarked) [compound 400, 3-((3-(4-chlorophenyl)-7-(3-(4-cyanophenyl)azetidine-1-carbonyl)quinoxalin-2-yl)methyl)cyclopentane-carboxylic acid]: the Ki fell in the range of 2.1 to 20 nM.

In turn, `O=C(N[C@H](c1ccc(Cl)cc1)C(F)(F)F)c1ccc2nc(-c3ccc(Cl)cc3)c(CC3CCC(C(=O)O)C3)nc2c1` (some centres unmarked) [compound 401] displayed a Ki of 20.1 to 200 nM.

`CC(C)[C@H](NC(=O)c1ccc2nc(-c3ccc(Cl)cc3)c(CCCCC(=O)O)nc2c1)c1ccc(F)cc1` [compound 402, (S)-5-(3-(4-chlorophenyl)-7-((1-(4-fluorophenyl)-2-methylpropyl)carbamoyl)quinoxalin-2-yl) pentanoic acid] came in with a Ki of 2.1 to 20 nM.

As to `C[C@@H](NC(=O)c1ccc2nc(-c3ccc(Cl)cc3)c(CCCCC(=O)O)nc2c1)c1ccc(C#N)cc1` [compound 403, (R)-5-(3-(4-chlorophenyl)-7-((1-(4-cyanophenyl)ethyl)carbamoyl)quinoxalin-2-yl)pentanoic acid], the Ki was in the range of 0.1 to 2 nM.

`C[C@H](NC(=O)c1ccc2nc(-c3ccc(Cl)cc3)c(CC3CCC(C(=O)O)C3)nc2c1)c1ccccc1` (stereo partly drawn) [compound 404, 3-((3-(4-chlorophenyl)-7-(((S)-1-phenylethyl)carbamoyl)quinoxalin-2-yl)methyl)cyclopentane-carboxylic acid] had a Ki of 2.1 to 20 nM.

As for `O=C(N[C@@H](c1ccccc1)C(F)(F)F)c1ccc2nc(-c3ccc(Cl)cc3)c(CC3CCC(C(=O)O)C3)nc2c1` (stereo partly drawn) [compound 405, 3-((3-(4-chlorophenyl)-7-(((S)-2,2,2-trifluoro-1-phenylethyl)carbamoyl)quinoxalin-2-yl)methyl)cyclopentane-carboxylic acid], the Ki fell in the range of 2.1 to 20 nM.

The compound `O=C(N[C@@H](c1ccc(Cl)cc1)C(F)(F)F)c1ccc2nc(-c3ccc(Cl)cc3)c(CC3CCC(C(=O)O)C3)nc2c1` (stereo partly drawn) [compound 406, 3-((3-(4-chlorophenyl)-7-(((S)-1-(4-chlorophenyl)-2,2,2-trifluoroethyl)carbamoyl)quinoxalin-2-yl)methyl)cyclopentane-carboxylic acid] registered a Ki of 2.1 to 20 nM.

`C[C@H](NC(=O)c1ccc2nc(-c3ccc(Cl)cc3)c(CC3CCC(C(=O)O)C3)nc2c1)c1ccc(F)cc1` (stereo partly drawn) [compound 407, 3-((3-(4-chlorophenyl)-7-(((S)-1-(4-fluorophenyl)ethyl)carbamoyl)quinoxalin-2-yl)methyl)cyclopentane-carboxylic acid] showed a Ki of 2.1 to 20 nM.

With `CC(CCCc1nc2cc(C(=O)N[C@H](C)c3ccc(F)cc3)ccc2nc1-c1ccc(Cl)cc1)C(=O)O` (stereo partly drawn) [compound 408, 5-(3-(4-chlorophenyl)-7-(((R)-1-(4-fluorophenyl)ethyl)carbamoyl)quinoxalin-2-yl)-2-methylpentanoic acid], the Ki lay in the range of 0.1 to 2 nM.

Take `CC(CCCc1nc2cc(C(=O)N[C@H](C)c3ccc(F)cc3)ccc2nc1-c1ccc(Cl)cc1)C(=O)O` (stereo partly drawn) [compound 409, 5-(3-(4-chlorophenyl)-7-(((R)-1-(4-fluorophenyl)ethyl)carbamoyl)quinoxalin-2-yl)-2-methylpentanoic acid]: the inhibition constant (Ki) lay in the range of 20.1 to 200 nM.

Take `C[C@@H](NC(=O)c1ccc2nc(-c3cccc(C#N)c3)c(CCCCC(=O)O)nc2c1)c1ccc(F)cc1` [compound 410, (R)-5-(3-(3-cyanophenyl)-7-((1-(4-fluorophenyl)ethyl)carbamoyl)quinoxalin-2-yl)pentanoic acid]: the Ki is 20.1 to 200 nM.

In turn, `C[C@@H](NC(=O)c1ccc2nc(-c3ccc(F)c(F)c3)c(CCCCC(=O)O)nc2c1)c1ccc(F)cc1` [compound 411] yielded a Ki of 20.1 to 200 nM.

In turn, `C[C@@H](NC(=O)c1ccc2nc(-c3ccc(Cl)cc3)c(CCCCC(=O)O)nc2c1)c1cc(F)cc(F)c1` [compound 412, (R)-5-(3-(4-chlorophenyl)-7-((1-(3,5-difluorophenyl)ethyl)carbamoyl)quinoxalin-2-yl) pentanoic acid] yielded a Ki of 0.1 to 2 nM.

Turning to `C[C@H](NC(=O)c1ccc2nc(-c3ccc(Cl)cc3)c(CCCCC(=O)O)nc2c1)c1cc(F)cc(F)c1` [compound 413, (S)-5-(3-(4-chlorophenyl)-7-((1-(3,5-difluorophenyl)ethyl)carbamoyl)quinoxalin-2-yl) pentanoic acid], the Ki was 0.1 to 2 nM.

The compound `O=C(O)CCCCc1nc2cc(C(=O)N3CCC(c4ccc(F)cc4)CC3)ccc2nc1-c1ccc(Cl)cc1` [compound 414, 5-(3-(4-chlorophenyl)-7-(4-(4-fluorophenyl)piperidine-1-carbonyl)quinoxalin-2-yl)pentanoic acid] gave a Ki of 0.1 to 2 nM.

`O=C(O)CCCCc1nc2cc(C(=O)N3CCC(c4ccc(Cl)cc4)CC3)ccc2nc1-c1ccc(Cl)cc1` [compound 415, 5-(3-(4-chlorophenyl)-7-(4-(4-chlorophenyl)piperidine-1-carbonyl)quinoxalin-2-yl)pentanoic acid] showed a Ki of 0.1 to 2 nM.

`C[C@@H](NC(=O)c1ccc2nc(-c3ccc(Cl)cc3Cl)c(CCCCC(=O)O)nc2c1)c1ccc(F)cc1` [compound 416, (R)-5-(3-(2,4-dichlorophenyl)-7-((1-(4-fluorophenyl)ethyl)carbamoyl)quinoxalin-2-yl)pentanoic acid] showed an inhibitory constant (Ki) of 2.1 to 20 nM.

In the case of `C[C@@H](NC(=O)c1ccc2nc(-c3ccc(C(F)(F)F)cc3Cl)c(CCCCC(=O)O)nc2c1)c1ccc(F)cc1` [compound 417, (R)-5-(3-(2-chloro-4-(trifluoromethyl)phenyl)-7-((1-(4-fluorophenyl)ethyl)carbamoyl)quinoxalin-2-yl) pentanoic acid], the Ki lay within 2.1 to 20 nM.
